Reference: patent US6924296B2, “Antithrombotic agents” (Eli Lilly and Company, priority 2000, dated 2005)
Where a name gives a salt, the structure may show the parent alone.

Molecular target: human factor Xa (Homo sapiens, UniProt P00742)
Assay: Factor Xa chromogenic substrate inhibitor binding affinity assay (apparent Kass)
Conditions: 1.34 nM human factor Xa, 0.18 mM BzIle-Glu-Gly-Arg-pNA; mean value; read-out: Kass (apparent association constant) (converted)
Experimental: The inhibition by a compound of the inhibition of a serine protease of the human blood coagulation system or of the fibrinolytic system, as well as of trypsin, is determined in vitro for the particular enzyme by measuring its inhibitor binding affinity in an assay in which the enzyme hydrolyzes a particular chromogenic substrate, for example as described in Smith, G. F.; Gifford-Moore, D.; Craft, T. J.; Chirgadze, N.; Ruterbories, K. J.; Lindstrom, T. D.; Satterwhite, J. H. Efegatran: A New Cardiovascular Anticoagulant. New Anticoagulants for the Cardiovascular Patient; Pifarre, R., Ed.; Hanley & Belfus, Inc.: Philadelphia, 1997; pp. 265-300. The inhibitor binding affinity is measured as apparent association constant Kass which is the hypothetical equilibrium constant for the reaction between enzyme and the test inhibitor compound (I).
Enzyme+I⇄Enzyme−I [formula]
Conveniently, enzyme inhibition kinetics are performed in 96-well polystyrene plates and reaction rates are determined from the rate of hydrolysis of appropriate p-nitroanilide substrates at 405 nm using a Thermomax plate reader from Molecular Devices (San Francisco, Calif.). […] The rates of chromogenic substrate hydrolysis reactions provide a linear relationship with the enzymes studied such that free enzyme can be quantitated in reaction mixtures. […]

Chain of human factor Xa (P00742 235-488 limits assumed): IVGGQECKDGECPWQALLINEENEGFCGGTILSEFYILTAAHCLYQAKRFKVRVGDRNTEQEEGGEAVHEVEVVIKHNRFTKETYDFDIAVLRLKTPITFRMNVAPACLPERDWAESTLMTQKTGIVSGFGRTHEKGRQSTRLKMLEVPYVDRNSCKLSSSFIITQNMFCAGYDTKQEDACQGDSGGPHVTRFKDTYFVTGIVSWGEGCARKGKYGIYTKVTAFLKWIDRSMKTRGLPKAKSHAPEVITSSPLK
Chain of human factor Xa (P00742 41-179 partner limits assumed): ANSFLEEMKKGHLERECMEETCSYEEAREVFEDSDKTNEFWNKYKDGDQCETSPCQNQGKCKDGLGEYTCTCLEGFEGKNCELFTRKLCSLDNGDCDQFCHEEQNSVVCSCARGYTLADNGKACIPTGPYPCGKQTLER

Kd: 472 nM
SMILES: O=C(NC1CCN(C(=O)C2CCN(c3ccncc3)CC2)C1)c1ccc2cc[nH]c2c1 (stereo not shown) [Example 1, 3-[(6-Indolyl)carbonyl]amino-1-[[1-(4-pyridinyl)piperidin-4-yl]carbonyl]pyrrolidine Hydrochloride Salt]
